We go through 29 compounds from publication PMC12136037, “Type II kinase inhibitors that target Parkinson’s disease–associated LRRK2” (Science Advances, 2025).

Assay in all cases: DSF 100 kinase selectivity screen;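 note: compound tested at 20 µM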
Holding throughout (format): binding

The target in assay [1] is T1, ~100 representative kinases (Homo sapiens, UniProt O14936).
T1 construct: Recombinant protein kinase domains with a concentration of 2 μM
T1 sequence (O14936 1-926): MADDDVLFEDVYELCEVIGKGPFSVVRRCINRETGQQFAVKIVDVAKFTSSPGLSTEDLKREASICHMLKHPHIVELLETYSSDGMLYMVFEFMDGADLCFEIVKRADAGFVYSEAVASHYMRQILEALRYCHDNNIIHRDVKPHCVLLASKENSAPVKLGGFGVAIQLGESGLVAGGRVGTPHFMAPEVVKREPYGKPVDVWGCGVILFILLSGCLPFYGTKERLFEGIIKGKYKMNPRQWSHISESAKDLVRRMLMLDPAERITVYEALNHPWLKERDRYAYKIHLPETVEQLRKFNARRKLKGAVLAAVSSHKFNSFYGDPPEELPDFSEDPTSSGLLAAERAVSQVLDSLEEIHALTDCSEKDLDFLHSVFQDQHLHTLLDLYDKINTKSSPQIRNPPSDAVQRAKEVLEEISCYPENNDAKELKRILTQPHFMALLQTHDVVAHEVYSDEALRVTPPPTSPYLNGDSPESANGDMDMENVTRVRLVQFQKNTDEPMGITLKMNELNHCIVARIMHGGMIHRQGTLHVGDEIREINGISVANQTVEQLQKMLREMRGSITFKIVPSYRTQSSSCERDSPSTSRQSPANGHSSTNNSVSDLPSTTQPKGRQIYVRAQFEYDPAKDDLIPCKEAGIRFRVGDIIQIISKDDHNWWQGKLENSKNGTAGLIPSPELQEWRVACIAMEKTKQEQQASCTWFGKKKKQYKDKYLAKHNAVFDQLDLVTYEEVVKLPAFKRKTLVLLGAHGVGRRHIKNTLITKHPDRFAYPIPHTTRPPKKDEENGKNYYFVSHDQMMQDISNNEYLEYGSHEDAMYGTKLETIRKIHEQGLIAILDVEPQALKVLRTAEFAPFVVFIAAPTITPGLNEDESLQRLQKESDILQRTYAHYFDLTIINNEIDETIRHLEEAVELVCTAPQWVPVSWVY
Conditions: Protein CASK; average of three replicates. In a few lines: (§1)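 Each kinase domain, at 2 μM, is mixed with 20 μM test compound and SYPRO Orange in Hepes (20 mM, pH 7.5) with 500 mM NaCl. Temperature is then raised at 3°C/min and fluorescence-monitored unfolding yields the melting temperature change, ΔTm in degrees Celsius.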

Assay [2] has as its target T2, ~100 representative kinases (Homo sapiens, UniProt P33981).
T2 construct: Recombinant protein kinase domains with a concentration of 2 μM
T2 sequence (P33981 1-857): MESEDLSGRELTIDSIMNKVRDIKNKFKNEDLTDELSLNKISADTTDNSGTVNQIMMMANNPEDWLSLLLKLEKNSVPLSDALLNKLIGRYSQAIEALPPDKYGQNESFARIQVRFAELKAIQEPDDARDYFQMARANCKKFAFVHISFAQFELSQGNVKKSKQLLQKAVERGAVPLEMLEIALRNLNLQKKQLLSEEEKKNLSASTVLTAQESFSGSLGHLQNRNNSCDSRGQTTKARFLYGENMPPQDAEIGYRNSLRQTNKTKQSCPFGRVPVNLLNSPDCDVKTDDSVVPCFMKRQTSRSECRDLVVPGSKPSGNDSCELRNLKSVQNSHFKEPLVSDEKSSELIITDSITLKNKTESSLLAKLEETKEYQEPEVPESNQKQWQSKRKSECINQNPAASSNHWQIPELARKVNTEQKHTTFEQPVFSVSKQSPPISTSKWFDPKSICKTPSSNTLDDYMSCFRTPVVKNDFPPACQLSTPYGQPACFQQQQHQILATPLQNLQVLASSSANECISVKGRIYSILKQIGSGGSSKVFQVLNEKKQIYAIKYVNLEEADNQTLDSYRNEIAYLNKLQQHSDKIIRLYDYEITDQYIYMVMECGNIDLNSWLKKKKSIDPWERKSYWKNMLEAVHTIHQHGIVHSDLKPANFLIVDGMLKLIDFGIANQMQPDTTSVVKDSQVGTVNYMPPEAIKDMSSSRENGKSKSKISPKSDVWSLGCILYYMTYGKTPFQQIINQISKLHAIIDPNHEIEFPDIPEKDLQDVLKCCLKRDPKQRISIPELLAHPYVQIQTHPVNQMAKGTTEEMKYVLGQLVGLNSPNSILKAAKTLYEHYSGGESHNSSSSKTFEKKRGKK
Conditions: Protein TTK; DSF; average of three replicates. In a few lines: as §1

In assay [3] the target is T3, ~100 representative kinases (Homo sapiens, UniProt Q9UPE1).
T3 construct: Recombinant protein kinase domains with a concentration of 2 μM
The settings on record: Protein SRPK3; DSF; average of three replicates. The gist of the method: as §1

T3 sequence (Q9UPE1 whole entry, the tested form may be a part): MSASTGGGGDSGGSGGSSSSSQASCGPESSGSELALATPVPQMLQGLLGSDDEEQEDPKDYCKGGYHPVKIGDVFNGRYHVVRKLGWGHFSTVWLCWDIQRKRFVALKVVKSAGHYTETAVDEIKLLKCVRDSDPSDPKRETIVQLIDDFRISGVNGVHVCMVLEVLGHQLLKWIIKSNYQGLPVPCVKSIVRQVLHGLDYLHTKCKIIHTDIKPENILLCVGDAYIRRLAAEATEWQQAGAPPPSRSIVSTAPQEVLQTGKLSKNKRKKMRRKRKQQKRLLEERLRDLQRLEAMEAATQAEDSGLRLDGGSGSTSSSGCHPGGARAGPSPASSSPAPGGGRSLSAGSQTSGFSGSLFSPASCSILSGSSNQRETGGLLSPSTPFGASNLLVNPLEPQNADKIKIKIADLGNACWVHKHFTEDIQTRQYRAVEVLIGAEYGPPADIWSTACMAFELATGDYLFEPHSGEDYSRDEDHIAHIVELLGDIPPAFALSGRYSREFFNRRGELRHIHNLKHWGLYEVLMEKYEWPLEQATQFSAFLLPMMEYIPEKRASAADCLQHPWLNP

For the compound `Cc1ccc(C(=O)Nc2ccc(CN3CCN(C)CC3)c(C(F)(F)F)c2)cc1C#Cc1c[nH]c2ncnc(N3CCOCC3)c12` [Compound 1], the dTm in assay [1] was 1.18 K; in assay [2], 0.00 K.

For `O=C(Nc1ccc(F)cc1)C1(C(=O)Nc2cccc(-c3c[nH]c4ncnc(N5CCOCC5)c34)c2)CC1` [Compound 2], the dTm in assay [1] is reported as 0.30 K; in assay [2], 6.94 K; in assay [3] it was 6.73 K.

Consider `O=C(Nc1cccc(-c2c[nH]c3ncnc(N4CCOCC4)c23)c1)c1cccn(-c2ccc(F)cc2)c1=O` [Compound 4], for which the dTm in assay [1] is -0.18 K; in assay [2], 3.00 K; in assay [3] it was 5.16 K.

Take `Cc1cc(NC(=O)C2(C(=O)Nc3ccc(F)cc3)CC2)cc(-c2c[nH]c3ncnc(N4CCOCC4)c23)c1` [Compound 6]: the dTm in assay [1] was determined as 0.76 K; in assay [2], 5.72 K; in assay [3], 4.54 K.

Consider `O=C(Nc1cccc(-c2c[nH]c3ncnc(N4CCOCC4)c23)c1)C1(C(=O)Nc2cccc3c2CCC3)CC1` [Compound 11], for which the dTm in assay [1] was -5.15 K; in assay [2], 6.04 K; in assay [3] it was 3.94 K.

Turning to `O=C(Nc1ccccc1)C1(C(=O)Nc2cccc(-c3c[nH]c4ncnc(N5CCOCC5)c34)c2)CC1` [Compound 12], the dTm in assay [1] was 0.25 K; in assay [2], 7.12 K; in assay [3], 4.78 K.

Regarding `O=C(Nc1ccc(Cl)cc1)C1(C(=O)Nc2cccc(-c3c[nH]c4ncnc(N5CCOCC5)c34)c2)CC1` [Compound 13], the dTm was determined as 0.70 K in assay [1], 6.50 K in assay [2] and 8.47 K in assay [3].

`Cc1ccc(NC(=O)C2(C(=O)Nc3cccc(-c4c[nH]c5ncnc(N6CCOCC6)c45)c3)CC2)cc1` [Compound 14]: the dTm was 0.19 K in assay [1], 4.57 K in assay [2] and 5.15 K in assay [3].

`CCc1ccc(NC(=O)C2(C(=O)Nc3cccc(-c4c[nH]c5ncnc(N6CCOCC6)c45)c3)CC2)cc1` [Compound 15]: the dTm in assay [1] is 0.36 K; in assay [2], 6.77 K; in assay [3], 3.89 K.

For `COc1ccc(NC(=O)C2(C(=O)Nc3cccc(-c4c[nH]c5ncnc(N6CCOCC6)c45)c3)CC2)cc1` [Compound 16], the results for the dTm in assay [1], in assay [2] and in assay [3] were 0.15 K, 3.48 K and 2.74 K, respectively.

Consider `O=C(Nc1cccc(-c2c[nH]c3ncnc(N4CCOCC4)c23)c1)C1(C(=O)Nc2ccc(F)c(F)c2)CC1` [Compound 17], for which the dTm is 0.19 K in assay [1], 6.18 K in assay [2] and 5.74 K in assay [3].

Consider `O=C(Nc1cccc(-c2c[nH]c3ncnc(N4CCOCC4)c23)c1)C1(C(=O)Nc2ccc(F)c(Cl)c2)CC1` [Compound 18], for which the figures for the dTm in assay [1], in assay [2] and in assay [3] were 0.56 K, 8.02 K and 7.93 K, respectively.

For `O=C(Nc1cccc(-c2c[nH]c3ncnc(N4CCOCC4)c23)c1)C1(C(=O)Nc2ccc(F)c(Br)c2)CC1` [Compound 19], the dTm in assay [1] stood at 1.26 K; in assay [2], 9.93 K; in assay [3], 6.39 K.

`Cc1cc(NC(=O)C2(C(=O)Nc3cccc(-c4c[nH]c5ncnc(N6CCOCC6)c45)c3)CC2)ccc1F` [Compound 20]: the results for the dTm in assay [1], in assay [2] and in assay [3] were 0.17 K, 8.62 K and 10.86 K, respectively.

Take `COc1cc(NC(=O)C2(C(=O)Nc3cccc(-c4c[nH]c5ncnc(N6CCOCC6)c45)c3)CC2)ccc1F` [Compound 21]: the dTm was 0.09 K in assay [1], 7.84 K in assay [2] and 6.98 K in assay [3].

Consider `CC(C)(C)c1cccc(NC(=O)C2(C(=O)Nc3cccc(-c4c[nH]c5ncnc(N6CCOCC6)c45)c3)CC2)c1` [Compound 22], for which the dTm in assay [1] amounted to 1.08 K; in assay [2], 5.44 K; in assay [3], 4.39 K.

Regarding `O=C(Nc1cccc(-c2c[nH]c3ncnc(N4CCOCC4)c23)c1)C1(C(=O)Nc2ccc(F)cc2F)CC1` [Compound 23], the dTm in assay [1] is 0.06 K; in assay [2], -5.86 K; in assay [3], 4.09 K.

For `Cc1cc(F)ccc1NC(=O)C1(C(=O)Nc2cccc(-c3c[nH]c4ncnc(N5CCOCC5)c34)c2)CC1` [Compound 24], the dTm is -0.0179 K in assay [1], 2.46 K in assay [2] and 1.90 K in assay [3].

`O=C(Nc1cccc(-c2c[nH]c3ncnc(N4CCOCC4)c23)c1)C1(C(=O)Nc2cc(Br)c(F)cc2F)CC1` [Compound 25]: the dTm came to 1.03 K in assay [1], 5.98 K in assay [2] and 3.28 K in assay [3].

Consider `O=C(Nc1cccc(-c2c[nH]c3ncnc(N4CCOCC4)c23)c1)C1(C(=O)Nc2ccc(F)c(Br)c2F)CC1` [Compound 26], for which the results for the dTm in assay [1], in assay [2] and in assay [3] were 1.04 K, 6.98 K and 2.55 K, respectively.

In the case of `O=C(Nc1cc(F)cc(Br)c1)C1(C(=O)Nc2cccc(-c3c[nH]c4ncnc(N5CCOCC5)c34)c2)CC1` [Compound 27], the dTm in assay [1] is 1.15 K; in assay [2] it was 4.57 K; in assay [3], 0.82 K.

Regarding `CC(C)(C)c1cc(NC(=O)Nc2cccc(-c3c[nH]c4ncnc(N5CCOCC5)c34)c2)n(-c2ccc3ncccc3c2)n1` [Compound 28], the dTm in assay [1] was found to be 0.70 K; in assay [2] it was 7.28 K; in assay [3], 9.26 K.

On to `Cc1ccc(-n2nc(C(C)(C)C)cc2NC(=O)Nc2cccc(-c3c[nH]c4ncnc(N5CCOCC5)c34)c2)cc1` [Compound 29], for which the results for the dTm in assay [1], in assay [2] and in assay [3] were 0.14 K, 4.46 K and 6.09 K, respectively.

For `Cc1ccc(-n2nc(C(C)(C)C)cc2NC(=O)Nc2cccc(-c3c[nH]c4nc(Cl)nc(N5CCOCC5)c34)c2)cc1` [Compound 30], the dTm is recorded as -0.47 K in assay [1], 2.15 K in assay [2] and 3.14 K in assay [3].

For `CCNc1nc(Nc2cc(F)c(C(=O)N3CCOCC3)cc2OC)ncc1C(F)(F)F` [GNE-7915], the dTm was 0.33 K in assay [1] and 6.53 K in assay [2].

Regarding `Cc1ccc(C(=O)Nc2ccc(CN3CCN(C)CC3)c(C(F)(F)F)c2)cc1C#Cc1cnc2[nH]ncc2c1` [GZD-824, reference compound], the figures for the dTm in assay [1] and in assay [2] were -2.40 K and 4.08 K, respectively.

For `C[C@@H]1CN(c2cc(-c3n[nH]c4ccc(OC5(C)CC5)cc34)ncn2)C[C@H](C)O1` [MLi2], the dTm in assay [1] came out at 0.19 K; in assay [2] it was 5.63 K.

Turning to `Cn1cc(-c2c[nH]c3ncnc(N4CCOCC4)c23)cc1C#N` [PFE-360], the dTm in assay [1] amounted to 0.12 K; in assay [2], 0.43 K.

In assay [3], `CN[C@@H]1C[C@H]2O[C@@](C)([C@@H]1OC)n1c3ccccc3c3c4c(c5c6ccccc6n2c5c31)C(=O)NC4` [Staurosporine] showed a dTm of 4.52 K.
